Reference: patent US20150125589A1, “TASTE-IMPROVING AGENT AND FOOD OR DRINK CONTAINING SAME” (NIPPON SUISAN KAISHA, LTD., priority 2011, published 2015)

Key:
[1] = Evaluation method 2: quantitating improvement of unpleasant flavor of potassium chloride as K/Na ratio against standard solutions, chicken stock soup; conditions: for improvement effect against the unpleasant flavor of potassium chloride: glycoside or aglycone 25 ppm final in standard solution 8, FIG. 17
Protocol: 1.32 g of Chinese soup stock granules (product name=“Marudori-gara Soup”, manufactured by Ajinomoto K.K., standard nutritional ingredients of 2.5 g of Chinese soup stock granules are shown in Table 1) was dissolved in 70 g of distilled water, and the mixture was filtered through filter paper (filter paper no. 2, manufactured by Advantec Toyo K.K.). Thereafter, 0.63 g of NaCl was added, and water was further added to obtain 100 g of chicken stock soup containing an equivalent of 1.26 percent table salt (Table 2, standard solution 1). The concentration of sodium chloride was decreased in a stepwise manner from the composition of the standard solution 1, and potassium chloride was added to produce multiple chicken stock soups (Table 2, standard solutions 2 to 8). The ratio of potassium chloride to sodium chloride ((potassium chloride concentration/sodium chloride concentration)×100(%), referred to hereinafter as “K/Na ratio”) was changed in standard solutions 1 to 8, and the intensity of the unpleasant flavor (i.e. bitterness, astringent taste, harsh taste, and bitter taste) characteristic of potassium chloride increased as the K/Na ratio value increased. The unpleasant flavor intensity increased in a stepwise manner for standard solutions 1 to 8. Intensity of this unpleasant flavor and detailed taste were evaluated by organoleptic evaluation by an expert panel, and results of evaluation were classified in three stages, i.e. initial taste, middle taste, and aftertaste.
A desired concentration of test solution was added to one of the standard solutions of Table 2 to produce an evaluation solution. At this time, for a test sample containing sodium chloride or potassium chloride, the evaluation solution was adjusted such that the total sodium chloride concentration or total potassium chloride concentration of the evaluation solution was equivalent to the respective standard solution. The standard solutions 1 to 8 of Table 2 are indicated in order of potassium chloride concentration. These evaluation solutions were compared to the standard solution, and the corresponding unpleasant flavor of potassium chloride was expressed as a K/Na ratio. The improvement effect was indicated as higher as the ratio of K/Na ratio obtained by evaluation to actual K/Na ratio decreased.

[2] = Evaluation method 1: expert panel ranking of potassium chloride unpleasant flavor intensity (normalized rank method), chicken stock soup; conditions: for effect of phospholipid for improvement of unpleasant flavor of potassium chloride: phospholipid 0.02 percent in standard solution 8, FIG. 21
[3] = Unpleasant taste distinguishable concentration of potassium chloride, blind ranking by panel; conditions: chicken stock soup models, panel n=11; FIG. 28
Protocol: 1.32 g of Chinese soup stock granules (product name=“Marudori-gara Soup”, manufactured by Ajinomoto K.K., standard nutritional ingredients of 2.5 g of Chinese soup stock granules are shown in Table 1) was dissolved in 70 g of distilled water, and the mixture was filtered through filter paper (filter paper no. 2, manufactured by Advantec Toyo K.K.). Thereafter, 0.63 g of NaCl was added, and water was further added to obtain 100 g of chicken stock soup containing an equivalent of 1.26 percent table salt (Table 2, standard solution 1). The concentration of sodium chloride was decreased in a stepwise manner from the composition of the standard solution 1, and potassium chloride was added to produce multiple chicken stock soups (Table 2, standard solutions 2 to 8). […] Intensity of this unpleasant flavor and detailed taste were evaluated by organoleptic evaluation by an expert panel, and results of evaluation were classified in three stages, i.e. initial taste, middle taste, and aftertaste.
Standard solutions 1 to 7 (with the exception of standard solution 2) were evaluated by a panel (n=11) by blind-testing to determine the order of potassium chloride unpleasant flavor intensity.

Compound	improvement effect against the unpleasant flavor of potassium chloride [1]	effect of phospholipid for improvement of unpleasant flavor of potassium chloride [2]	also measured
O=c1cc(-c2ccc(O)cc2)oc2cc(O[C@@H]3O[C@H](CO)[C@@H](O)[C@H](O)[C@H]3O)cc(O)c12 [apigenin 7-glucoside, Apigenin 7-glucoside]	high effect		
C[C@@H]1O[C@@H](O[C@H]2[C@H](Oc3cc(O)c4c(c3)O[C@H](c3ccc(O)cc3)CC4=O)O[C@H](CO)[C@@H](O)[C@@H]2O)[C@H](O)[C@H](O)[C@H]1O [naringin, Naringin, reference compound]	improvement effect was not found		
Phosphatidylinositol [PI]		high effects	
O=c1cc(-c2ccc(O)cc2)oc2cc(O[C@@H]3O[C@H](CO)[C@@H](O)[C@H](O)[C@H]3O[C@@H]3OC[C@](O)(CO)[C@H]3O)cc(O)c12 [fraction 13, apiin]	particularly high effect		added amount at which near maximum unpleasant flavor improvement effect was reached ([1]; 25, 50, 125, 250 ppm in standard solution 8, FIG. 16): ≥ 125 ppm; unpleasant flavor improvement effect of parsley extract fraction relative to its parent solution ([2]; fraction aqueous solution added at 15 percent by weight to standard solution 8, FIG. 12-15): equivalent to that of the evaluation solution 9
O=c1cc(-c2ccc(O)cc2)oc2cc(O)cc(O)c12 [apigenin, Apigenin]	high effect		
Phosphatidylserine [PS]		high effects	
Phosphatidic acid [PA, reference compound]		low	
Phosphatidylcholine [PC]		high effects	
O=c1c(-c2ccc(O)cc2)coc2cc(O[C@@H]3O[C@H](CO)[C@@H](O)[C@H](O)[C@H]3O)ccc12 [daidzin, Daidzin]	high effect		
Phosphatidylethanolamine [PE]		high effects	
[Cl-].[K+] [potassium chloride]			K/Na ratio at which unpleasant flavor of potassium chloride was not generally recognized [3]: less than or equal to 57%
